From ChEMBL document CHEMBL3507680, “University of Dundee, Gates Library screen for HepG2 cell viability”

Test: Human HepG2 cell viability assay in 384 well format
Type: toxicity, cell-based
Parameters: dose 125 nL, time 70.5 hour; cytotoxicity at 70.5 h: concentration not given beside the values
Settings: HepG2 cells, read-out: Inhibition

Compound	cytotoxicity at 70.5 h [%]
CCCN1CCC(NC(=O)Nc2ccc(OC)c(OC)c2)CC1	-1.26
O=C(c1cnc[nH]1)N1CCC(Oc2cccnc2)CC1	-8.28
CN(C)C(=O)c1coc(COc2ccccc2)n1	15.6
O=C1CCC2(CCCN(c3ncnc4[nH]cnc34)C2)CN1CCCO (configuration not stated)	-14.3
CC(=O)c1cnc(NCCN2CCCC2)nc1C	-0.135
CC(=O)c1cc(CN2CCCCC2c2nc3cc(F)ccc3[nH]2)cs1 (configuration not stated)	-5.07
CC(=O)c1cc(CC(=O)N2CCN(S(=O)(=O)c3ccccc3)CC2)cs1	-1.54
Cc1ccc(Cl)cc1-n1nnnc1C1(N2CCCC2)CCCCC1	-12.7
Cc1ccc(OCCN(C)C(=O)CCCC(N)=O)c(C)c1	-5.93
CC(C)N1CCC(CC(=O)N(C)CC(=O)c2ccc(O)cc2)CC1	-1.48
Cc1cc(CN2CCC(C3CCN(CCc4ccccc4)CC3)C2)[nH]n1 (configuration not stated)	-0.097
O=C1OCCN1CCNCC1(O)CCCN(CCC2CCCCC2)C1=O (configuration not stated)	-5.99
O=C1NCCN(Cc2cccnc2)C1CC(=O)N1CCc2n[nH]cc2C1 (configuration not stated)	-0.172
COc1ccc2c(c1)ncn2C[C@]1(O)CCCN2CCCC[C@@H]21	-13.3
Cn1ccnc1-c1cn(Cc2cn3c(n2)SCC3)nn1	-5.95
Cn1ccnc1CCC1CCCCN1Cc1cnc(N2CCCC2)nc1 (configuration not stated)	22.9
O=C(CCn1cc(Cl)cn1)N1CCC2(CC1)OCCCC2O (configuration not stated)	12
COCC(=O)N1C[C@@H](CN2CCCN(C)CC2)[C@@H](CO)C1	-4.72
O=C(c1cncc(F)c1)N1CCC(c2ncc[nH]2)CC1	-7.04
COc1cccc(OC2CN(C(=O)c3sccc3C)C2)c1	-4.06
COc1ccc(CCC2CCCN(C(=O)c3cnc(N)nc3C)C2)cc1 (configuration not stated)	-18.9
CCN1CCC(CNC(=O)C(c2ccccc2F)N(C)C)(N(C)C)CC1 (configuration not stated)	-2.78
Cc1ccc(C(=O)N2CCCn3nc(CCC(=O)O)cc3C2)cc1Cl	-2.03

Compound	cytotoxicity at 70.5 h [%]
Cc1ccc(CN2CCNC(C(=O)NC3CC3)C2)cc1C (configuration not stated)	-10.4
CC(C)=CCN1CC2(CCN(Cc3c(F)cccc3F)CC2)CC1=O	23.4
N#Cc1cccc(C(=O)N2C[C@H](CO)C[C@H](CN3CCCC3)C2)c1	2.99
CC(=O)N[C@@H]1CN(C(=O)c2cnccn2)C[C@H]1c1ccc(C)cc1	-11.4
Cc1cccnc1NCCNC(=O)C1CCN(C(=O)N(C)C)CC1	12.2
COCCn1cnnc1Cn1ccnc1-c1ccccc1C	1.73
COc1ccccc1CCN[C@@H]1c2ccccc2C2(CCNCC2)[C@H]1O	-4.74
Cc1ccc2[nH]c(CN(C)c3cc(CCN)nc(C)n3)nc2c1	-8.93
CCOc1ccc2nc(CN3CCOC(CN)C3)ccc2c1 (configuration not stated)	-3.44
OCC1(CC2CC2)CCCN(Cc2cnc(C3CCCCC3)nc2)C1 (configuration not stated)	-5.05
COCc1cc(NCCc2ccc(OC)cc2)n2nccc2n1	-24.5
COCC1(C(=O)N2CCC(c3nccn3CC3CC3)CC2)CCC1	2.4
CN(C(=O)CN1CCCC1=O)C1CCCN(C2Cc3ccccc3C2)C1 (configuration not stated)	-3.18
CC(C)NS(=O)(=O)c1cc(C(=O)O)cc(-c2ccccc2F)c1	-10.8
CC(C)c1nccc(CN(C)Cc2cccc(-n3cccn3)c2)n1	-1.47
CC(C)Cn1cncc1Cn1cccc(C(F)(F)F)c1=O	-2.53
CCc1cc(-c2cc[nH]n2)nc(N2CCCC2)n1	-7.99
Cc1cc(CNC(=O)CC2CCN(C(C)C)CC2)n(C)n1	16.3
Cc1ccc(C)c(S(=O)(=O)N2CCN(C)C3(CCC(=O)N(C)CC3)C2)c1 (configuration not stated)	-13.3
CN(C)CCN(Cc1ccsc1)C(=O)C1=NNC(=O)CC1	-9.01
CCCC(C)NCc1cnc(-c2cccc(C)c2)nc1 (configuration not stated)	1.72
CC(=O)c1ccc(NCc2cc3n(n2)CCCN(S(C)(=O)=O)C3)nc1	-1.18
COc1cc(-c2nc3c([nH]2)CCCNC3=O)ccc1OC(C)C	-3.41

Compound	cytotoxicity at 70.5 h [%]
CCCOCCN1CCC2(CC1)CC(=O)N(Cc1cc(F)cc(F)c1)C2	-3.73
COc1ccccc1CN1C(=O)O[C@@H]2CN(C(C)C)C[C@@H]21	-0.224
O=C(c1ccccc1C1CCNC1)N1CCC(N2CCC(O)CC2)CC1 (configuration not stated)	-12.4
CSc1nnc(CC2CCN(C(=O)COc3cccnc3)CC2)n1C	-8.54
NC(=O)C1CCN(C(C(=O)O)c2ccc(Cl)c(C(F)(F)F)c2)CC1 (configuration not stated)	13.4
Cc1cc(CN(C)C(=O)CN2CC3(CCNCC3)OC2=O)n(C)n1	-9.14
c1ccc(CN2CCC(NCCSc3ncn[nH]3)C2)cc1 (configuration not stated)	30.4
CCNc1ccnc(N2CCCC(CCOC)(C(=O)O)C2)n1 (configuration not stated)	23.1
CCCc1cc(N2CCC(Cc3cccc(C(N)=O)c3)C2)nc(C)n1 (configuration not stated)	-5.44
CC(C)(C(=O)N1CCCC(OCc2cccnc2)C1)n1cccc1 (configuration not stated)	-4.94
COc1ccccc1CC(=O)N1CCCC(c2nccn2CC(N)=O)C1 (configuration not stated)	23.1
CCc1cccc(C)c1NC(=O)c1ccccc1N(C)S(C)(=O)=O	26.1
Cc1ccsc1CCNC(=O)CCC1CCCCN1C (configuration not stated)	-15
CC(C)(C)NS(=O)(=O)c1ccc(NC(=O)C2CC2)cc1	7.98
COc1coc(CN2CCCC(CCc3ccc(F)cc3)C2)cc1=O (configuration not stated)	2.53
CC(c1ccco1)n1cc(-c2cc(CN3CCCC3)cs2)nn1 (configuration not stated)	-0.331
COc1ccccc1Oc1ncccc1CNC(=O)[C@@H](N)[C@@H](C)O	-1.67
CC(=O)N1CCCN(C(C(=O)O)c2ccccc2OC(F)(F)F)CC1 (configuration not stated)	-7.53
CCC(C(=O)N(Cc1ccccc1OC)C1CC1)n1cccn1 (configuration not stated)	-10.3
Cc1nc(C2CCCNC2)cc(N(C)CCc2cn[nH]c2)n1 (configuration not stated)	20.1
O[C@H]1[C@H](NCCSc2ccccn2)c2ccccc2C12CCNCC2	1.07
CC(C)(O)CCc1ccc(C(=O)NCCC2CCOC2)cc1 (configuration not stated)	-2.2
CC(C)N1CCCC(C(=O)N(C)CCCc2cnn(C)c2)C1 (configuration not stated)	-2.41

Compound	cytotoxicity at 70.5 h [%]
Cc1cn(CC(=O)Nc2cc(C(C)C)nn2C)cn1	-10.1
Cc1cc(NCc2ccc(O)cc2)n2nc(C)cc2n1	-2.08
CC(=O)Nc1ccc(S(=O)(=O)Nc2c(F)cccc2F)cc1	1.02
Cc1cc(N2CCC(c3ncc[nH]3)CC2)nc(N)n1	-2.19
O=C(O)C(c1ccc(O)cc1)N1CCC(N2CCSCC2)CC1 (configuration not stated)	-0.773
CN(C)CCN(C)C(=O)c1cn(CC2CCCCC2)nn1	-18.4
Cc1cccc2cc(CN3CCCN4CCC[C@H]4C3)c(=O)[nH]c12	1.79
CCCc1noc(-c2cn(CC(=O)N(CC)CC)nn2)n1	-4.55
NCc1cn(CC2CCCN(C(=O)CC3=CCCCC3)C2)nn1 (configuration not stated)	-11.9
CCc1cccc(CC)c1NC(=O)c1ccccc1N(C)S(C)(=O)=O	-8.14
O=C(CO)N1CCCC2(CCC(=O)N(CC3CC3)C2)C1 (configuration not stated)	-11
CC(C)(CNC1CCCN(Cc2ccccc2F)C1)CN1CCOCC1 (configuration not stated)	-15.7
COCc1nc(N2CCC(CCO)CC2)c2cnn(C)c2n1	2.73
O=C(c1ccon1)N1CCc2ncnc(NCc3ccccn3)c2CC1	0.424
Cc1cc(-c2nn(C)c(Cl)c2CN2CCOC(C(=O)O)C2)no1 (configuration not stated)	13.8
N#Cc1ccccc1CN1CCC(c2nccn2CC(N)=O)CC1	-4.95
COc1ccc2c(=O)n(CC3CC3)ccc2c1OC	2.47
CCOCc1nc2c(c(NCCNC(C)=O)n1)CCN(C(C)=O)CC2	16.6
CCCN1CCN(C(=O)c2cnccc2C)[C@H]2CS(=O)(=O)C[C@H]21	-3.96
O=C(CN1CCCC1c1nc(-c2ccccc2)no1)N1CCOCC1 (configuration not stated)	-4.9
O=C(O)CN1CCc2onc(C(c3ccccc3)c3ccccc3)c2C1	-3.48
COc1cc2c(cc1OC)CN(C(C(=O)O)c1c(C)nn(C)c1C)CC2 (configuration not stated)	-6.71
COc1cc(C(=O)O)cc(I)c1OCC(=O)NCCc1ccccc1	-4.57

Compound	cytotoxicity at 70.5 h [%]
O=C(COCc1ccccc1)N1CCN(c2ccc(Cl)cn2)CC1	-4.29
O=C(CCC1CCCC1)N1C[C@H]2CC[C@@H]1CN(Cc1ccncc1)C2	-11.9
O=c1[nH]c(NCc2cccc(-c3ccccc3)c2)nc2c1CCNC2	-21
CC(C)(C)CN1CCCC2(CCN(C(=O)c3cn[nH]c3)C2)C1 (configuration not stated)	-9.2
Cc1ccc2c(C)c(C(=O)NCc3csc(N)n3)oc2c1	-13
Cc1ccc2nc(C)c(C)c(C(=O)NCCCn3ccnn3)c2c1	3.79
CCn1cnnc1CCNc1nc(C)cc(C)c1C#N	27.1
CS(=O)(=O)N1CCc2[nH]cnc2C12CCN(C(=O)c1ccccc1)CC2	-1.52
Cc1csc2c(N3CCC(NCCCc4ccncc4)CC3)ncnc12	-7.45
O=C1[C@H]2CC[C@H](CN(C3CSCCSC3)C2)N1Cc1cscn1	-7.49
O=C(c1cncc(N2CCC(O)(CO)CC2)n1)N1CCCC1	-9.52
Cc1cc(NCc2cccnc2)n2nc(C)cc2n1	-8.91
CCc1nc(C)c(C(=O)N2C[C@H]3CC[C@@H]2CN(S(=O)(=O)N(C)C)C3)s1	8.88
N#Cc1ccc(CN2CCN(C(=O)C3CCC3)[C@@H]3CS(=O)(=O)C[C@@H]32)cc1	-6.79
CC(C)(CO)NC(=O)C1CCC(=O)N(Cc2ccc(Cl)cc2)C1 (configuration not stated)	-8.51
Cc1ccccc1Oc1ncccc1CNS(C)(=O)=O	19.1
CN(C)c1ccc(CC(=O)N[C@@H]2CCNC[C@H]2O)cc1	-3.58
CN(C)Cc1ccc(C2CCCCN2C(=O)c2cc(C3CC3)n[nH]2)cc1 (configuration not stated)	-5
Cc1cc(=O)[nH]c(SCC(=O)N(C)CC2Cc3ccccc3CN2C)n1 (configuration not stated)	-6.08
CN(Cc1ccccc1)CC1(O)CCCN(CC(C)(C)C)C1=O (configuration not stated)	-3.59
